Common to all, as to type: functional
The test system of one assay is Mucor racemosus. Briefly: Antifungal activity against Mucor racemosus WRL CN(M)304 assessed as fungal growth inhibition.
For assay [1], the system named is Rhizomucor pusillus. Briefly: Antifungal activity against Rhizomucor pusillus ETH M4920 assessed as fungal growth inhibition.
In assay [2] the test system is Rhizopus arrhizus. Nature of the assay: Antifungal activity against Rhizopus oryzae CBS 112.07 assessed as fungal growth inhibition measured after 48 hrs by microtitre plate reader assay.
In assay [3] the test system is Syncephalastrum racemosum. Briefly: Antifungal activity against Syncephalastrum racemosum SZMC 2011 assessed as fungal growth inhibition measured after 48 hrs by microtitre plate reader assay.
Assay [4] has as its system Rhizopus arrhizus. Briefly: Antifungal activity against Rhizopus oryzae clinical isolate assessed as fungal growth inhibition by checkerboard broth microdilution assay.
Assay [5] has as its system Rhizomucor miehei. Briefly: Antifungal activity against Rhizomucor miehei CBS 360.92 assessed as fungal growth inhibition.
Assay [6] in a line: Antifungal activity against Rhizopus microsporus NRRL 514 assessed as fungal growth inhibition measured after 48 hrs by microtitre plate reader assay.
Assay [7] deals with Mucor circinelloides. Briefly: Antifungal activity against Mucor circinelloides MS 12 assessed as fungal growth inhibition.
The subject of assay [8] is Rhizopus arrhizus. Briefly: Antifungal activity against Rhizopus oryzae clinical isolate assessed as fungal growth inhibition measured after 24 to 72 hrs by microtitre plate reader analysis. The settings on record: time 24-72 hrs.
For assay [9], the system named is Rhizomucor pusillus. Nature of the assay: Antifungal activity against Rhizomucor pusillus CN(M)231 assessed as fungal growth inhibition measured after 48 hrs by microtitre plate reader assay.
A further assay has as its system Lichtheimia corymbifera. Nature of the assay: Antifungal activity against Absidia corymbifera SZMC 2010 assessed as fungal growth inhibition measured after 48 hrs by microtitre plate reader assay.
Assay [10] relates to Rhizomucor miehei. Nature of the assay: Antifungal activity against Rhizomucor miehei CBS 360.92 assessed as fungal growth inhibition measured after 48 hrs by microtitre plate reader assay.
In another assay the test system is Mucor mucedo. Briefly: Antifungal activity against Mucor mucedo WRL CN(M) assessed as fungal growth inhibition.
For assay [11], the system named is Rhizomucor pusillus. Nature of the assay: Antifungal activity against Rhizomucor pusillus clinical isolate assessed as fungal growth inhibition measured after 48 hrs by microtitre plate reader analysis.
In assay [12] the test system is Rhizopus arrhizus. Nature of the assay: Antifungal activity against Rhizopus oryzae CBS 109939 assessed as fungal growth inhibition by checkerboard broth microdilution assay.
Assay [13] relates to Rhizopus arrhizus. Briefly: Antifungal activity against Rhizopus oryzae CBS 146.90 assessed as fungal growth inhibition.
A further assay has as its system Absidia glauca. Briefly: Antifungal activity against Absidia glauca SZMC 11072 assessed as fungal growth inhibition.
For assay [14], the system named is Rhizopus arrhizus. Briefly: Antifungal activity against Rhizopus oryzae clinical isolate assessed as fungal growth inhibition.
Assay [15] has as its system Mucor circinelloides. Nature of the assay: Antifungal activity against Mucor circinelloides clinical isolate assessed as fungal growth inhibition.
The test system of assay [16] is Cunninghamella bertholletiae. Briefly: Antifungal activity against Cunninghamella bertholletiae clinical isolate assessed as fungal growth inhibition.
In assay [17] the test system is Rhizomucor miehei. Briefly: Antifungal activity against environmental and clinical isolate Rhizomucor miehei assessed as fungal growth inhibition measured after 24 to 48 hrs by plate reader assay. The following applies: time 24-48 hrs.
A further assay concerns Rhizopus homothallicus. Briefly: Antifungal activity against Rhizopus homothallicus clinical isolate assessed as fungal growth inhibition.
Assay [18] relates to Syncephalastrum racemosum. Nature of the assay: Antifungal activity against Syncephalastrum racemosum SZMC 2011 assessed as fungal growth inhibition measured after 24 hrs by microtitre plate reader assay.
The subject of assay [19] is Rhizomucor pusillus. Nature of the assay: Antifungal activity against environmental and clinical isolate Rhizomucor pusillus assessed as fungal growth inhibition measured after 24 to 48 hrs by plate reader assay. The following applies: time 24-48 hrs.

Converted amounts (≈) assume the structure as drawn.

Usually MIC stands for the least concentration at which growth counts as inhibited. One may read the MIC90 as an inhibitory concentration at the 90% level, which refers to growth in some studies and to a panel of isolates in others.

As for `CC(C)n1c(/C=C/[C@H](O)C[C@H](O)CC(=O)O)c(-c2ccc(F)cc2)c2ccccc21`, the minimal inhibitory concentration (MIC) in the assay on Mucor racemosus was found to be 25 µg/mL (≈ 60.8 µM); in the assay with Rhizomucor pusillus [1] it was 6.25 µg/mL (≈ 15.2 µM); in the assay with Rhizopus arrhizus [2], 3.6 µg/mL (≈ 8.75 µM); in assay [3], 11 µg/mL (≈ 26.7 µM); in the assay with Rhizopus arrhizus [4] it was 2 µg/mL; in the assay with Rhizomucor miehei [5], 3.12 µg/mL (≈ 7.59 µM). Further, the MIC in the assay on Mucor circinelloides [7] was found to be 4 µg/mL (≈ 9.72 µM); in the assay with Rhizopus arrhizus [8] it was 2 µg/mL (≈ 4.86 µM); with Rhizomucor pusillus [9] it was 0.4 µg/mL (≈ 0.972 µM); in the assay with Mucor mucedo it was 6.25 µg/mL (≈ 15.2 µM); with Rhizomucor pusillus [11] it was 0.4 µg/mL (≈ 0.972 µM); with Rhizopus arrhizus [12], 2 µg/mL. Besides, the minimal inhibitory concentration (MIC) is 12.5 µg/mL (≈ 30.4 µM) with Rhizopus arrhizus [13] and 6.25 µg/mL (≈ 15.2 µM) in the assay on Absidia glauca. In addition, the MIC90 is 33 µg/mL (≈ 80.2 µM) in [6], 3.6 µg/mL (≈ 8.75 µM) in the assay on Lichtheimia corymbifera and 3.6 µg/mL (≈ 8.75 µM) with Rhizomucor miehei [10].

Take `CC[C@H](C)C(=O)O[C@H]1C[C@@H](C)C=C2C=C[C@H](C)[C@H](CC[C@@H]3C[C@@H](O)CC(=O)O3)[C@H]21` [LOVASTATIN]: the minimum inhibitory concentration (MIC) is 32.6 µg/mL (≈ 80.5 µM) in the assay on Rhizopus arrhizus [14]; 16 µg/mL (≈ 39.6 µM) with Mucor circinelloides [15]; 32 µg/mL (≈ 79.1 µM) in [16]; 64 µg/mL (≈ 158 µM) in the assay with Rhizomucor miehei [17]; 40 µg/mL (≈ 98.9 µM) in the assay with Rhizopus homothallicus; 128 µg/mL (≈ 316 µM) with Rhizopus arrhizus [8]. Further, the MIC in assay [18] amounted to 16 µg/mL (≈ 39.6 µM); in the assay on Rhizopus arrhizus [12], 128 µg/mL; in the assay on Rhizomucor pusillus [19], 1 µg/mL (≈ 2.47 µM). The MIC90 with Rhizomucor pusillus [9] was 3.6 µg/mL (≈ 8.9 µM).

Values taken from ChEMBL document CHEMBL5331089, “Mucormycosis: A hidden mystery of fungal infection, possible diagnosis, treatment and development of new therapeutic agents” (Eur J Med Chem, 2023).
